Here are results for five compounds from PubChem BioAssay (NCI).

Test systems include ACHN renal; EKVX NSCLC; SK-MEL-5 melanoma; NCI-H226 lung; CAKI-1 renal; UACC-257 melanoma; SNB-75 CNS; SK-OV-3 ovarian; SF-268 CNS; OVCAR-8 ovarian.
What all share (assay): inhibition of tumour cell growth, NCI panel, 48 h

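96-well plates; 48 h exposure; 5 concentrations. Endpoints by linear interpolation between flanking doses. Not reached: highest tested concentration assigned. TGI: concentration producing complete growth inhibition.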

In the case of `CC1=NN(C(=O)CSc2nc3ccc(I)cc3c(=O)n2Cc2ccccc2)C(=O)C1`, the TGI with ACHN renal is over 100 µM; in the assay on EKVX NSCLC, 79.8 µM; in the assay on SK-MEL-5 melanoma it was 55.2 µM; with NCI-H226 lung it was over 100 µM; in the assay with CAKI-1 renal it was over 100 µM; in the assay on UACC-257 melanoma, 85.4 µM. In addition, the TGI in the assay with SNB-75 CNS is 85.3 µM; in the assay on SK-OV-3 ovarian, 77 µM; with SF-268 CNS, 69.5 µM; in the assay on OVCAR-8 ovarian it was over 100 µM.
`C[C@H]1C=C2[C@@H]3CC(C)(C(=O)O)CC[C@]3(C)CC[C@]2(C)[C@]2(C)CC[C@H]3C(C)(C)[C@@H](OC(=O)c4cccc5c(=O)c6ccccc6[nH]c45)CC[C@]3(C)[C@@H]12` (stereo not given in full): the TGI in the assay on ACHN renal, with EKVX NSCLC, with SK-MEL-5 melanoma, in the assay with NCI-H226 lung, with CAKI-1 renal and in the assay with UACC-257 melanoma was over 100 µM each time. Also, the TGI in the assay with SNB-75 CNS, in the assay on SK-OV-3 ovarian, in the assay with SF-268 CNS and with OVCAR-8 ovarian was over 100 µM throughout.
Consider `COc1ccc(/C=C2\CN(C)C/C(=C\c3ccc(OC)c(OC)c3OC)C2=O)c(OC)c1OC`, for which the TGI with ACHN renal was found to be 0.565 µM; in the assay with EKVX NSCLC, 4.37 µM; in the assay on SK-MEL-5 melanoma it was 0.705 µM; in the assay on NCI-H226 lung, 2.49 µM; with CAKI-1 renal, 1.55 µM; with UACC-257 melanoma, 0.571 µM. Moreover, the TGI in the assay with SNB-75 CNS amounted to 2.64 µM; in the assay with SK-OV-3 ovarian it was 1.89 µM; in the assay on SF-268 CNS it was 2.01 µM; in the assay on OVCAR-8 ovarian, 0.343 µM.
For `COc1cccc(NC(=O)C(C#N)=C(SC)SC)c1`, the TGI in the assay on ACHN renal, in the assay with EKVX NSCLC, in the assay with SK-MEL-5 melanoma, in the assay with NCI-H226 lung, in the assay with CAKI-1 renal and in the assay on UACC-257 melanoma was over 100 µM each time. The TGI in the assay with SNB-75 CNS, in the assay with SK-OV-3 ovarian, in the assay on SF-268 CNS and with OVCAR-8 ovarian was over 100 µM throughout.
Consider `N#C/C(=C\c1c[nH]c2ccccc12)C(=O)c1ccc(O)c(O)c1`, for which the TGI in the assay on ACHN renal was over 94.3 µM; in the assay with EKVX NSCLC it was over 100 µM; in the assay with SK-MEL-5 melanoma, over 100 µM; in the assay on NCI-H226 lung it was over 100 µM; with CAKI-1 renal, over 100 µM; in the assay on UACC-257 melanoma, over 100 µM. Besides, the TGI with SNB-75 CNS, with SK-OV-3 ovarian, in the assay with SF-268 CNS and in the assay on OVCAR-8 ovarian was over 100 µM in each case.
